Experimental data: patent US8158628B2, “Sulfonylated 1,2,3,4-tetrahydropyrrolo[1,2-a]pyrazine compounds and their use as pharmaceuticals” (Gruenenthal GmbH, priority 2009, dated 2012)

Target: T1, B1R of the rat (Rattus norvegicus, UniProt P97583)
T1 construct: expressed in transfected cells; host or cells: CHO K1 cells (Chinese hamster ovary), stably transfected
T1 sequence (P97583 1-337): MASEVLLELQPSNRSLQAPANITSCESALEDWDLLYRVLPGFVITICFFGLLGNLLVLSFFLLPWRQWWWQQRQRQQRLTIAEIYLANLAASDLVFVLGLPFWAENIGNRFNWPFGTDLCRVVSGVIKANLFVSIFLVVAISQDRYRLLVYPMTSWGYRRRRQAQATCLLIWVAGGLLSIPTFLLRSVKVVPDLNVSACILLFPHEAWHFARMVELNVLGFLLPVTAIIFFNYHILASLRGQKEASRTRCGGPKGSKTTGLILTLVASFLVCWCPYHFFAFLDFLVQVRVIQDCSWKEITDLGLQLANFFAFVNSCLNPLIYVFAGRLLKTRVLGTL
Experiment: FLIPR Ca2+ functional assay, B1R antagonism, rat B1R in CHO K1 cells
Format: cell-based
Conditions: test substance 10 μM; rB1R CHO K1 cells; agonist Des-Arg9 bradykinin at EC80; % of maximum achievable inhibition
Protocol: The agonistic or antagonistic action of substances on the bradykinin 1 receptor (B1R) of the human and rat species can be quantified with ectopically expressing cell lines (CHO K1 cells) and with the aid of a Ca^2+-sensitive dye (Fluo-4) using a fluorescent imaging plate reader (FLIPR). The value in % activation is based on the Ca^2+ signal after addition of Lys-Des-Arg^9 bradykinin (0.5 nM) or Des-Arg^9 bradykinin (100 nM). Antagonists lead to a suppression of the Ca^2+ influx following administration of the agonist. The % inhibition in comparison with the maximum achievable inhibition is indicated.
1. Functional Investigation on the Bradykinin 1 Receptor (B1R) The agonistic or antagonistic action of substances can be determined on the bradykinin 1 receptor (B1R) of the human and rat species with the following assay. According to this assay, the Ca^2+ inflow through the channel is quantified with the aid of a Ca^2+-sensitive dye (Fluo-4 type, Molecular Probes Europe BV, Leiden, Netherlands) in a fluorescent imaging plate reader (FLIPR, Molecular Devices, Sunnyvale, USA). 2. Method: Chinese hamster ovary cells (CHO K1 cells) which are stably transfected with the human B1R gene (hB1R cells) or the B1R gene of the rat (rB1R cells) are used. For functional investigations these cells are plated-out onto black 96-well plates with a clear base (BD Biosciences, Heidelberg, Germany or Greiner, Frickenhausen, Germany) in a density of 20,000-35,000 cells/well. Overnight the cells are incubated at 37° C. and 5% CO2 in culture medium (hB1R cells: Ham's Nutrient Mixture F12, Gibco Invitrogen GmbH, Karlsruhe, Germany or DMEM, Sigma-Aldrich, Taufkirchen, Germany; rB1R cells: D-MEM/F12, Gibco Invitrogen, Karlsruhe, Germany) with 10 vol. % FBS (foetal bovine serum, Gibco Invitrogen GmbH, Karlsruhe, Germany or PAN Biotech GmbH, Aidenbach, Germany).
On the following day the cells are loaded with 2.13 μM Fluo-4 (Molecular Probes Europe BV, Leiden, Netherlands) in HBSS buffer (Hank's buffered saline solution, Gibco Invitrogen GmbH, Karlsruhe, Germany) with 2.5 mM probenecid (Sigma-Aldrich, Taufkirchen, Germany) and 10 mM HEPES (Sigma-Aldrich, Taufkirchen, Germany) for 60 min at 37° C. The plates are subsequently washed twice with HBSS buffer, and HBSS buffer which additionally contains 0.1% BSA (bovine serum albumin; Sigma-Aldrich, Taufkirchen, Germany), 5.6 mM glucose and 0.05% gelatine (Merck KGaA, Darmstadt, Germany) is added. After a further incubation of 20 minutes at RT, the plates are inserted into the FLIPR for Ca^2+ measurement. Alternatively they are washed with buffer A (15 mM HEPES, 80 mM NaCl, 5 mM KCl, 1.2 mM CaCl2, 0.7 mM MgSO4, 2 g/l glucose, 2.5 mM probenecid) and loaded with buffer A with added 2.5 μM Fluo-4 and 0.025% Pluronic F127 (Sigma-Aldrich, Taufkirchen, Germany). The cells are then washed twice with buffer A and incubated for 30 minutes with buffer A, which additionally contains 0.05% BSA and 0.05% gelatine, at RT and then used for Ca^2+ measurement in the FLIPR. The Ca^2+-dependent fluorescence is measured here before and after addition of substances (λex=488 nm, λem=540 nm). The quantification is performed by measuring the highest fluorescence intensity (FC, fluorescence counts) over time.
The FLIPR protocol comprises two additions of substance. Test substances (10 μM) are first pipetted onto the cells and the Ca^2+ inflow is compared with the control (hB1R: Lys-Des-Arg^9 bradykinin >=50 nM; rB1R: Des-Arg^9 bradykinin 10 μM). The value in % activation based on the Ca^2+ signal after addition of Lys-Des-Arg^9 bradykinin (>=50 nM) or Des-Arg^9 bradykinin (10 μM) is obtained therefrom. After incubation for 10-20 minutes, Lys-Des-Arg^9 bradykinin (hB1R) or Des-Arg^9 bradykinin (rB1R) is applied in the EC80 concentration and the inflow of Ca^2+ is likewise determined.
Antagonists lead to a suppression of the Ca^2+ inflow. The % inhibition in comparison with the maximum achievable inhibition is calculated. […]

inhibition at 10 µM [%] | Compound
17.6 | COc1cc(C)c(S(=O)(=O)N2CCn3cccc3C2CC(=O)N2CCN(c3ccc(Cl)c(Cl)c3)CC2)c(C)c1 (stereo not shown) [Example 238, 1-[4-(3,4-Dichlorophenyl)-piperazin-1-yl]-2-[2-[(4-methoxy-2,6-dimethyl-phenyl)sulfonyl]-1,2,3,4-tetrahydro-pyrrolo[1,2-a]pyrazin-1-yl]-ethanone]
2.94 | Cc1ccc(CN2CCN(C(=O)CC3c4cccn4CCN3S(=O)(=O)c3ccccc3)CC2)cc1 (stereo not shown) [Example 232, 2-[2-(Benzenesulfonyl)-1,2,3,4-tetrahydro-pyrrolo[1,2-a]pyrazin-1-yl]-1-[4-(p-tolyl-methyl)-piperazin-1-yl]-ethanone]
-39.1 | Cc1cccc(Cl)c1S(=O)(=O)N1CCn2cccc2C1CC(=O)N1CCN(CCC#N)CC1 (stereo not shown) [Example 253, 3-[4-[2-[2-[(2-Chloro-6-methyl-phenyl)sulfonyl]-1,2,3,4-tetrahydro-pyrrolo[1,2-a]pyrazin-1-yl]-acetyl]-piperazin-1-yl]-propionitrile]
1.05 | N#Cc1cccnc1N1CCN(C(=O)CC2c3cccn3CCN2S(=O)(=O)c2cccc(C(F)(F)F)c2)CC1 (stereo not shown) [Example 269, 2-[4-[2-[2-[[3-(Trifluoromethyl)phenyl]sulfonyl]-1,2,3,4-tetrahydro-pyrrolo[1,2-a]pyrazin-1-yl]-acetyl]-piperazin-1-yl]-pyridine-3-carbonitrile]
-38 | Cc1cccc(Cl)c1S(=O)(=O)N1CCn2cccc2C1CC(=O)N1CCCCC1Cc1ccccn1 (stereo not shown) [Example 250, 2-[2-[(2-Chloro-6-methyl-phenyl)sulfonyl]-1,2,3,4-tetrahydro-pyrrolo[1,2-a]pyrazin-1-yl]-1-[2-(pyridin-2-yl-methyl)-piperidin-1-yl]-ethanone]
8.85 | O=C(CC1c2cccn2CCN1S(=O)(=O)c1ccc(C(F)(F)F)cc1Cl)NCC1CCCN(Cc2ccccc2)C1 (stereo not shown) [Example 254, N-[(1-Benzyl-piperidin-3-yl)-methyl]-2-[2-[[2-chloro-4-(trifluoromethyl)-phenyl]sulfonyl]-1,2,3,4-tetrahydro-pyrrolo[1,2-a]pyrazin-1-yl]-acetamide]
-10.5 | Cc1cccc(Cl)c1S(=O)(=O)N1CCn2cccc2C1CC(=O)N1CCN(Cc2ccc3c(c2)OCO3)CC1 (stereo not shown) [Example 252, 1-[4-(1,3-Benzodioxol-5-yl-methyl)-piperazin-1-yl]-2-[2-[(2-chloro-6-methyl-phenyl)sulfonyl]-1,2,3,4-tetrahydro-pyrrolo[1,2-a]pyrazin-1-yl]-ethanone]

Second part, the compound before the results:

Compound | inhibition at 10 µM [%]
Cc1cccc(Cl)c1S(=O)(=O)N1CCn2cccc2C1CC(=O)NC(CN1CCN(C)CC1)c1ccccc1 (stereo not shown) [Example 156, 2-[2-[(2-Chloro-6-methyl-phenyl)sulfonyl]-1,2,3,4-tetrahydro-pyrrolo[1,2-a]pyrazin-1-yl]-N-[2-(4-methyl-piperazin-1-yl)-1-phenyl-ethyl]-acetamide] | 95.1
Cc1cccc(Cl)c1S(=O)(=O)N1CCn2cccc2C1CC(=O)N1CCC(N2CCCCC2)CC1 (stereo not shown) [Example 160, 2-[2-[(2-Chloro-6-methyl-phenyl)sulfonyl]-1,2,3,4-tetrahydro-pyrrolo[1,2-a]pyrazin-1-yl]-1-(4-piperidin-1-yl-piperidin-1-yl)-ethanone] | 42.8
O=C(CC1c2cccn2CCN1S(=O)(=O)c1ccccc1)N1CCN(c2ccccc2F)CC1 (stereo not shown) [Example 172, 2-[2-(Benzenesulfonyl)-1,2,3,4-tetrahydro-pyrrolo[1,2-a]pyrazin-1-yl]-1-[4-(2-fluorophenyl)-piperazin-1-yl]-ethanone] | 14.1
O=C(CC1c2cccn2CCN1S(=O)(=O)c1cccc(C(F)(F)F)c1)N1CCC(N2CCCCC2)CC1 (stereo not shown) [Example 188, 1-(4-Piperidin-1-yl-piperidin-1-yl)-2-[2-[[3-(trifluoromethyl)phenyl]sulfonyl]-1,2,3,4-tetrahydro-pyrrolo[1,2-a]pyrazin-1-yl]-ethanone] | -2.25
COc1cc(C)c(S(=O)(=O)N2CCn3cccc3C2CC(=O)N2CCN(c3ccccc3F)CC2)c(C)c1 (stereo not shown) [Example 144, 1-[4-(2-Fluorophenyl)-piperazin-1-yl]-2-[2-[(4-methoxy-2,6-dimethyl-phenyl)sulfonyl]-1,2,3,4-tetrahydro-pyrrolo[1,2-a]pyrazin-1-yl]-ethanone] | 70.3
COc1cc(C)c(S(=O)(=O)N2CCn3cccc3C2CC(=O)N2CCN(c3ccccn3)CC2)c(C)c1 (stereo not shown) [Example 149, 2-[2-[(4-Methoxy-2,6-dimethyl-phenyl)sulfonyl]-1,2,3,4-tetrahydro-pyrrolo[1,2-a]pyrazin-1-yl]-1-(4-pyridin-2-yl-piperazin-1-yl)-ethanone] | 68.9
COc1cc(C)c(S(=O)(=O)N2CCn3cccc3C2CC(=O)N2CCC(c3nc4cc(C)ccc4[nH]3)CC2)c(C)c1 (stereo not shown) [Example 148, 2-[2-[(4-Methoxy-2,6-dimethyl-phenyl)sulfonyl]-1,2,3,4-tetrahydro-pyrrolo[1,2-a]pyrazin-1-yl]-1-[4-(5-methyl-1H-benzoimidazol-2-yl)-piperidin-1-yl]-ethanone] | 70.4
N#Cc1cccnc1N1CCCN(C(=O)CC2c3cccn3CCN2S(=O)(=O)c2ccccc2)CC1 (stereo not shown) [Example 181, 2-[4-[2-[2-(Benzenesulfonyl)-1,2,3,4-tetrahydro-pyrrolo[1,2-a]pyrazin-1-yl]-acetyl]-[1,4]diazepan-1-yl]-pyridine-3-carbonitrile] | 33.9
Cc1cccc(Cl)c1S(=O)(=O)N1CCn2cccc2C1CC(=O)NCC1CCN(Cc2ccccc2)C1 (stereo not shown) [Example 166, N-[(1-Benzyl-pyrrolidin-3-yl)-methyl]-2-[2-[(2-chloro-6-methyl-phenyl)sulfonyl]-1,2,3,4-tetrahydro-pyrrolo[1,2-a]pyrazin-1-yl]-acetamide] | 99.1
O=C(CC1c2cccn2CCN1S(=O)(=O)c1ccccc1)NCCN1CCCC1 (stereo not shown) [Example 168, 2-[2-(Benzenesulfonyl)-1,2,3,4-tetrahydro-pyrrolo[1,2-a]pyrazin-1-yl]-N-(2-pyrrolidin-1-yl-ethyl)-acetamide] | 40.1
Cc1cccc(Cl)c1S(=O)(=O)N1CCn2cccc2C1CC(=O)N1CCN(c2ncccn2)CC1 (stereo not shown) [Example 162, 2-[2-[(2-Chloro-6-methyl-phenyl)sulfonyl]-1,2,3,4-tetrahydro-pyrrolo[1,2-a]pyrazin-1-yl]-1-(4-pyrimidin-2-yl-piperazin-1-yl)-ethanone] | 25.2
COc1cc(C)c(S(=O)(=O)N2CCn3cccc3C2CC(=O)N2CCN(CCn3c(C)ccc3C)CC2)c(C)c1 (stereo not shown) [Example 147, 1-[4-[2-(2,5-Dimethyl-1H-pyrrol-1-yl)-ethyl]-piperazin-1-yl]-2-[2-[(4-methoxy-2,6-dimethyl-phenyl)sulfonyl]-1,2,3,4-tetrahydro-pyrrolo[1,2-a]pyrazin-1-yl]-ethanone] | 86.5
